US20250134683A1, “MICRO-NANO MEDICAL STENT FOR DIRECTIONAL, QUANTITATIVE AND TIMED RELEASE OF DRUG AND PREPARATION METHOD THEREOF” (GUANGDONG UNIVERSITY OF TECHNOLOGY, priority 2023, published 2025)

Test: sequential release of drugs from core-shell nano-disordered electrospun fiber structure
Type: physicochemical
Details: composite electrospun layer of Example 1; roxithromycin in shell layer fiber, human epidermal growth factor in core layer fiber
Description: Moreover, the transmission electron microscopic image of the core-shell nano-disordered electrospun fiber structure in the composite electrospun layer prepared in Example 1 is shown in FIG. 3. […] The coaxial electrospinning realizes the sequential and timed release of the two drugs in the same electrospun layer. Further, the electrospun layer can be prepared by triaxial electrospinning or multiaxial electrospinning process, which has a core-shell structure of three core layers or multi-core layers, thereby achieving the sequential and timed release of three or more drugs in the same electrospun layer.

order of drug release from core-shell fiber: released in advance
SMILES: CC[C@H]1OC(=O)[C@H](C)[C@@H](O[C@H]2C[C@@](C)(OC)[C@@H](O)[C@H](C)O2)[C@H](C)[C@@H](O[C@@H]2O[C@H](C)C[C@H](N(C)C)[C@H]2O)[C@](C)(O)C[C@@H](C)/C(=N\OCOCCOC)[C@H](C)[C@@H](O)[C@]1(C)O [roxithromycin]
